Test results: PubChem BioAssay AID248 (DTP/NCI, 2004)
Values joined by “and” are separate entries in the source; they are usually repeats but may differ in a detail not shown here. Equal entries are not always repeated. Inconclusive results and toxic doses are left out. No stated cut-off is given here; in the data, active means T/C of 150% or more; inactive means T/C below 125%.

Tested on: L1210 leukemia ip in BDF1 mice, survival T/C
Assay: NCI In Vivo Anticancer Drug Screen. Data for tumor model L1210 Leukemia (intraperitoneal) in B6D2F1 (BDF1) mice
Details: endpoint: mean survival time, higher = longer survival
Summary of the method: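 Transplanted-tumor mice were given test agent; controls received vehicle only. Survival readings from the two groups were divided (treated over control).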

[1] = dose: 100.0 mg/kg/injection, schedule: Q01DX001 (ip), vehicle: Klucel (hydroxypropylcellulose) (HPC)
[2] = dose: 200.0 mg/kg/injection, schedule: Q01DX001 (ip), vehicle: Klucel (hydroxypropylcellulose) (HPC)
[3] = dose: 400.0 mg/kg/injection, schedule: Q01DX001 (ip), vehicle: Klucel (hydroxypropylcellulose) (HPC)
[4] = dose: 100.0 mg/kg/injection, schedule: Q04DX003 (ip), vehicle: Klucel (hydroxypropylcellulose) (HPC)
[5] = dose: 200.0 mg/kg/injection, schedule: Q04DX003 (ip), vehicle: Klucel (hydroxypropylcellulose) (HPC)
[6] = dose: 400.0 mg/kg/injection, schedule: Q04DX003 (ip), vehicle: Klucel (hydroxypropylcellulose) (HPC)
[7] = dose: 100.0 mg/kg/injection, schedule: Q04DX003 (ip), vehicle: saline

Measured: T/C

CC1(C)N=C(N)N=C(N)N1c1ccc(CC(C(=O)Nc2ccc(S(=O)(=O)F)cc2)c2ccccc2)cc1 (stereo not given)
inactive: dose: 75.0 mg/kg/injection, schedule: Q01DX001 (ip), vehicle: Klucel (hydroxypropylcellulose) (HPC) 97 % of control | dose: 150.0 mg/kg/injection, schedule: Q01DX001 (ip), vehicle: Klucel (hydroxypropylcellulose) (HPC) 94 % of control | dose: 300.0 mg/kg/injection, schedule: Q01DX001 (ip), vehicle: Klucel (hydroxypropylcellulose) (HPC) 90 % of control

CC(C)NC(=O)NC(C)C
inactive: [1] 100 % of control | [2] 96 % of control | [3] 94 % of control

Cc1cc(CSC2=NCCN2)c(C)cc1CSC1=NCCN1
inactive: dose: 25.0 mg/kg/injection, schedule: Q04DX002 (ip), vehicle: saline with Tween-80 111 % of control | dose: 50.0 mg/kg/injection, schedule: Q04DX002 (ip), vehicle: saline with Tween-80 100 % of control | dose: 100.0 mg/kg/injection, schedule: Q04DX002 (ip), vehicle: saline with Tween-80 101 % of control and 109 % of control

Nc1nc2nc(N=Nc3ccc(S(=O)(=O)N(CCCl)CCCl)cc3)[nH]c2c(=O)[nH]1
inactive: [4] 93 % of control | [5] 87 % of control | [6] 96 % of control

CN(C(=S)c1ccc(Cl)cc1)c1ccccc1
inactive: [1] 103 % of control | [4] 92 % of control | [2] 98 % of control | [5] 102 % of control | [3] 103 % of control | [6] 97 % of control

O=C1CCCC23C4CCCC4C12C1CCCC13 (stereo not given)
inactive: dose: 100.0 mg/kg/injection, schedule: Q04DX002 (ip), vehicle: gum acacia 100 % of control | dose: 200.0 mg/kg/injection, schedule: Q04DX002 (ip), vehicle: gum acacia 97 % of control | dose: 400.0 mg/kg/injection, schedule: Q04DX002 (ip), vehicle: gum acacia 100 % of control

CC(C)CC(=O)Nc1ccc(S(=O)(=O)Cl)cc1
inactive: dose: 100.0 mg/kg/injection, schedule: Q01DX009 (ip), vehicle: saline with Tween-80 106 % of control | dose: 100.0 mg/kg/injection, schedule: Q04DX003 (ip), vehicle: saline with Tween-80 92 % of control | dose: 200.0 mg/kg/injection, schedule: Q01DX009 (ip), vehicle: saline with Tween-80 101 % of control | dose: 200.0 mg/kg/injection, schedule: Q04DX003 (ip), vehicle: saline with Tween-80 86 % of control | dose: 400.0 mg/kg/injection, schedule: Q01DX009 (ip), vehicle: saline with Tween-80 94 % of control | dose: 400.0 mg/kg/injection, schedule: Q04DX003 (ip), vehicle: saline with Tween-80 89 % of control

O=[N+]([O-])c1cccc(S(=O)(=O)OCC2CO2)c1 (stereo not given)
inactive: dose: 100.0 mg/kg/injection, schedule: Q01DX009 (ip), vehicle: Klucel (hydroxypropylcellulose) (HPC) 98 % of control | dose: 200.0 mg/kg/injection, schedule: Q01DX009 (ip), vehicle: Klucel (hydroxypropylcellulose) (HPC) 104 % of control

CC(C)CCCC(C)C1CCC2C3CC(O)C4=CCCCC4(C)C3CCC12C (stereo not given)
inactive: dose: 9.38 mg/kg/injection, schedule: Q01DX001 (ip), vehicle: other 97 % of control | dose: 18.75 mg/kg/injection, schedule: Q01DX001 (ip), vehicle: other 94 % of control | dose: 37.5 mg/kg/injection, schedule: Q01DX001 (ip), vehicle: other 94 % of control

CC(=O)NC(C)(SC(C)=O)C(=O)O (stereo not given)
inactive: [1] 94 % of control | [2] 95 % of control | [3] 94 % of control

OCCN1CCN(CCCN2c3ccccc3CCc3ccccc32)CC1
inactive: dose: 12.5 mg/kg/injection, schedule: Q04DX003 (ip), vehicle: saline 98 % of control | dose: 15.62 mg/kg/injection, schedule: Q04DX003 (ip), vehicle: saline 100 % of control | dose: 25.0 mg/kg/injection, schedule: Q04DX003 (ip), vehicle: saline 106 % of control | dose: 31.25 mg/kg/injection, schedule: Q04DX003 (ip), vehicle: saline 103 % of control | dose: 50.0 mg/kg/injection, schedule: Q04DX003 (ip), vehicle: saline 104 % of control | dose: 62.5 mg/kg/injection, schedule: Q04DX003 (ip), vehicle: saline 105 % of control | [7] 104 % of control | dose: 125.0 mg/kg/injection, schedule: Q04DX003 (ip), vehicle: saline 92 % of control

CC(C)=NNC(=O)CNc1ccc(Cl)c(C(F)(F)F)c1
inactive: dose: 100.0 mg/kg/injection, schedule: Q04DX002 (ip), vehicle: Klucel (hydroxypropylcellulose) (HPC) 97 % of control | dose: 200.0 mg/kg/injection, schedule: Q04DX002 (ip), vehicle: Klucel (hydroxypropylcellulose) (HPC) 104 % of control | dose: 400.0 mg/kg/injection, schedule: Q04DX002 (ip), vehicle: Klucel (hydroxypropylcellulose) (HPC) 111 % of control

C1CNCOC1
inactive: [7] 105 % of control | dose: 200.0 mg/kg/injection, schedule: Q04DX003 (ip), vehicle: saline 111 % of control

OCC1CC2CC(O)C1C2 (stereo not given)
inactive: dose: 75.0 mg/kg/injection, schedule: Q01DX001 (ip), vehicle: saline 100 % of control and 110 % of control | dose: 150.0 mg/kg/injection, schedule: Q01DX001 (ip), vehicle: saline 108 % of control
